{
  "source": "paper PMC4673272",
  "about": "“Oral nano-delivery of anticancer ginsenoside 25-OCH3-PPD, a natural inhibitor of the MDM2 oncogene: Nanoparticle preparation, characterization, in vitro and in vivo anti-prostate cancer activity, and mechanisms of action” (Oncotarget, 2015)",
  "key": {"[1]": {"test_system": "PC3 xenograft tumors", "test": "In vivo efficacy and host toxicity in PC3 prostate cancer xenograft model", "parameters": "species or system nude mice", "description": "The animal study protocol was approved by the Institutional Animal Use and Care Committee of the Texas Tech University Health Sciences Center. Male athymic pathogen-free nude mice (nu/nu, 4–6 weeks) were purchased from Charles River Laboratories (Wilmington, MA). The PC3 human prostate cancer xenografts were established as reported previously. Briefly, a total of 5 × 10^6 PC3 cells (in 0.1 mL) were subcutaneously injected into the left inguinal area of the mice. All animals were monitored for activity, physical condition, body weight, and tumor growth. When the tumor volume reached ~ 100 mm^3, the mice bearing PC3 xenografts were randomly divided into treatment and control groups (10 mice/each group). GS25NP was dissolved in water and administered by oral gavage at a dose of 20 mg/kg/d or 100 mg/kg/d, 5 day/week for 4 weeks, while GS25 in PEG400:EtOH:saline (57.1:14.3:28.6, v/v/v) was administered at a dose of 100 mg/kg/d for 4 weeks. The control groups received vehicle only or void NPs. At the end of the experiment, xenograft tumors and various organs (liver, lungs, kidneys, spleen, heart, and brain) were excised and snap frozen for Western blotting, immunohistochemical studies, TUNEL assays, and hematoxylin and eosin staining.\nAll of the staining assays were performed as described previously. Briefly, tissues were fixed and embedded in paraffin, cut into 5 μm sections, and then affixed onto glass slides. For the immunohistochemical studies, the tumor sections were blocked and incubated with a biotinylated anti-human MDM2 antibody (diluted 1:50 in 5% BSA in PBS) for 1–2 h at room temperature. Sections were then incubated with pre-diluted streptavidin-peroxidase HRP conjugates and stained with DAB chromogen according to the manufacturer's instructions. Finally, sections were lightly counterstained with hematoxylin. […] Tissue sections were analyzed under a phase-contrast Olympus microscope (Olympus America Inc)."}, "[2]": {"test_system": "LNCaP cells", "test": "Apoptosis, Annexin V-FITC, LNCaP", "type": "cell-based, Human", "details": "12.3 μg/mL, 48 h", "description": "(§1) Assays for cell viability and apoptosis were performed as described previously. In brief, 3–4 × 10^4 cells were seeded in a 96-well plate and treated with various concentrations of GS25 or GS25NP for 24, 48, or 72 h for the MTT assay. To detect apoptosis, 2–3 × 10^5 cells were seeded in 6-well plates and were treated with GS25 or GS25NP for 48 h. Cells positive for Annexin V-FITC and PI were counted on a BD FACSVerse instrument (BD Biosciences, CA, USA)."}, "[3]": {"test_system": "LNCaP (p53 wild-type) cells", "test": "Cell viability, MTT assay, LNCaP", "type": "cell-based, Human", "details": "GS25 equivalent", "description": "as §1"}, "[4]": {"test_system": "Caco-2 cell monolayers", "test": "Caco-2 cell monolayer permeability assay", "type": "in vitro ADME, Human", "details": "apical to basolateral, 37°C, pH 6.0", "description": "The Caco-2 cell monolayer permeability assay was performed as reported previously. In brief, Caco-2 cells were seeded onto polycarbonate 6-well Transwell® inserts (mean pore size 3.0 μm, Corning Costar Inc., NY, USA) at a density of 4 × 10^5 cells/well, then the confluent monolayers (10–12 days) were used for permeability studies. The transepithelial electrical resistance (TEER) of the monolayer was measured using an epithelial voltohmmeter (EVOM, WPI Inc., USA) to determine the formation of the monolayer and its integrity during the experiment. The studies were carried out in HBSS containing 30 mM HEPES at pH 6.0. Monolayers were washed with HBSS prior to the experiment, after which 0.5 and 1.2 mL of HBSS was placed into the upper and lower compartments, respectively. A total volume of 100 μL of solution (1 or 5 μg/mL) was taken from the lower compartment at regular intervals over 120 min and replaced with the same volume of fresh buffer, followed by a LC-MS/MS analysis. Apparent permeability coefficients (Papp) were calculated using the equation: (∂Q/∂t)/(A*C0), where “∂Q/∂t” is the permeability rate of the drug across the cells, “A” is the diffusion area of the monolayer and “C0” is the initial concentration of GS25 in the upper compartment."}, "[5]": {"test": "Maximum tolerated dose (MTD) study", "type": "in vivo", "details": "CD-1 mice, oral", "description": "To assess the possible host toxicity of GS25 and GS25NP and establish initial doses for in vivo treatment, a multi-dose MTD study was initially performed for both GS25 and GS25NP at a dose of 200 mg/kg for 7 days. […] The toxicity studies were continued with dose of 400 mg/kg/d for 7 days using a similar protocol. At the end of the study, all mice were euthanized, and various tissues (liver, lungs, kidneys, spleen, heart, and brain) were collected for a pathological analysis."}, "[6]": {"test_system": "PC3 (p53 null) cells", "test": "Cell viability, MTT assay, PC3", "type": "cell-based, Human", "details": "GS25 equivalent", "description": "as §1"}, "[7]": {"test": "Pharmacokinetics and biodistribution in CD-1 mice", "type": "in vivo", "description": "Pharmacokinetic studies were carried out in normal CD-1 mice and nude mice bearing PC3 xenograft tumors as described previously. Briefly, male CD-1 mice were divided randomly into four groups with three mice per time point. One group received 20 mg/kg of GS25 in PEG400:EtOH:saline by intravenous injection into the tail vein. One group of mice received GS25 in PEG400:EtOH:saline (57.1:14.3:28.6, v/v/v) at a dose of 100 mg/kg by oral administration. Two groups received GS25NP at a dose of 20 mg/kg and 100 mg/kg by oral administration. Nude mice bearing PC3 xenografts were divided into two groups and given GS25 and GS25NP at a dose of 100 mg/kg by oral administration. For orally-dosed mice, the plasma and various tissues (tumor, liver, lungs, kidneys, spleen, heart, brain, pancreas, fat, stomach, stomach contents, small intestine, small intestine contents, large intestine, and large intestine contents) were collected at 0, 15, 30, and 60 min, and 2, 4, 8, 24, 48, and 72 h after treatment. For mice that received an i.v. injection, various tissues were collected at 0, 5, 10, 30, and 60 min, and 2, 4, 8, 24, 48, and 72 h after treament. The plasma and tissue samples were stored at −80°C until they were analyzed by LC-MS/MS."}, "[8]": {"test_system": "DU145 cells", "test": "Apoptosis, Annexin V-FITC, DU145", "type": "cell-based, Human", "details": "DU145, 12.3 μg/mL, 48 h", "description": "as §1"}, "[9]": {"test_system": "PC3 cells", "test": "Apoptosis, Annexin V-FITC, PC3", "type": "cell-based, Human", "details": "PC3, 12.3 μg/mL, 48 h", "description": "as §1"}, "[10]": {"test_system": "MDM2", "test": "Western blotting of MDM2 and apoptosis-related proteins in prostate cancer cells", "type": "cell-based, Human", "details": "2.5 μg/mL, 24 h, LNCaP, DU145, PC3 cells", "description": "In the in vitro studies, prostate cancer cells with or without GS25 or GS25NP treatment were lysed in NP40 lysis buffer containing a protease inhibitor mixture (Sigma, St. Louis, MO, USA). In the in vivo studies, tumor tissues were removed and homogenized in NP40 lysis buffer (100 mg tumor tissue/1 mL NP40 buffer), and the supernatants of the homogenates was collected. Then, the cell lysates and tumor homogenates were subjected to Western blotting analyses for the expression levels of MDM2 and other related proteins using the methods described in our previous studies."}, "[11]": {"test_system": "DU145 (p53 mutant) cells", "test": "Cell viability, MTT assay, DU145", "type": "cell-based, Human", "details": "GS25 equivalent", "description": "as §1"}, "[12]": {"details": "nude mice bearing PC3 xenografts, 4-week oral treatment (GS25 100 mg/kg; GS25NP 20 and 100 mg/kg)"}},
  "data": [
    {"smiles": "COC(C)(C)CCC[C@](C)(O)[C@H]1CC[C@]2(C)[C@@H]1[C@H](O)C[C@@H]1[C@@]3(C)CC[C@H](O)C(C)(C)[C@@H]3CC[C@]12C", "note": "[GS25, 20(s)-25-methoxyl-dammarane-3beta, 12beta, 20-triol]", "values": [
      {"measurement": "Inhibition of PC3 xenograft tumor growth", "setting": "[1]; 100 mg/kg oral, 5 days/week for 4 weeks", "result": "approximately 41%"},
      {"measurement": "Change in average body weight", "setting": "[1]; [12]", "result": "no significant changes in the average body weights"},
      {"measurement": "Histological findings in liver, lungs, kidneys, spleen, heart, brain vs control", "setting": "[1]; [12]", "result": "no significant differences in the histological findings"},
      {"measurement": "Apoptotic cells", "setting": "[2]", "result": 28.5, "unit": "%"},
      {"measurement": "IC50 LNCaP", "setting": "[3]; treatment time 24 h", "result": 18.3, "unit": "µg/mL"},
      {"measurement": "IC50 LNCaP", "setting": "[3]; treatment time 48 h", "result": 11.6, "unit": "µg/mL"},
      {"measurement": "IC50 LNCaP", "setting": "[3]; treatment time 72 h", "result": 8.0, "unit": "µg/mL"},
      {"measurement": "Apparent permeability coefficient (Papp)", "setting": "[4]", "result": 38, "unit": "×10⁻⁶ cm/s"},
      {"measurement": "Body weight change in MTD study", "setting": "[5]; 200 or 400 mg/kg/d for 7 days", "result": "No significant decrease in mouse body weight"},
      {"measurement": "Histological examination of liver, lungs, kidneys, spleen, heart, brain vs vehicle", "setting": "[5]; 200 or 400 mg/kg/d for 7 days", "result": "no significant differences among the groups"},
      {"measurement": "Toxicity in MTD study", "setting": "[5]; up to 400 mg/kg/d for 7 days", "result": "no toxicity"},
      {"measurement": "IC50 PC-3", "setting": "[6]; treatment time 24 h", "result": 10.9, "unit": "µg/mL"},
      {"measurement": "IC50 PC-3", "setting": "[6]; treatment time 48 h", "result": 6.7, "unit": "µg/mL"},
      {"measurement": "IC50 PC-3", "setting": "[6]; treatment time 72 h", "result": 3.8, "unit": "µg/mL"},
      {"measurement": "Oral bioavailability", "setting": "[7]; 100 mg/kg oral vs 20 mg/kg i.v.", "result": "~ 14.9%"},
      {"measurement": "AUC0-t", "setting": "[7]; plasma, 100 mg/kg, p.o.", "result": 3500, "unit": "ng·h/mL"},
      {"measurement": "Cmax", "setting": "[7]; plasma, 100 mg/kg, p.o.", "result": 900, "unit": "ng/mL"},
      {"measurement": "T1/2", "setting": "[7]; plasma, 100 mg/kg, p.o.", "result": 2.1, "unit": "h"},
      {"measurement": "Apoptotic cells", "setting": "[8]", "result": 18.2, "unit": "%"},
      {"measurement": "Apoptotic cells", "setting": "[9]", "result": 22.9, "unit": "%"},
      {"measurement": "Effect on MDM2 and apoptosis-associated protein levels (p53, Bax, cleaved-PARP)", "setting": "[10]", "result": "did not produce significant effects"},
      {"measurement": "IC50 DU145", "setting": "[11]; treatment time 24 h", "result": 13.1, "unit": "µg/mL"},
      {"measurement": "IC50 DU145", "setting": "[11]; treatment time 48 h", "result": 8.0, "unit": "µg/mL"},
      {"measurement": "IC50 DU145", "setting": "[11]; treatment time 72 h", "result": 5.4, "unit": "µg/mL"}
    ]}
  ]
}
